Values quoted from earlier work in patent US20250235471A1, “OIL-IN-WATER EMULSION FOR INHALATION ADMINISTRATION COMPRISING CANNABIDIOL(CBD)” (Incannex Healthcare Limited, priority 2021, published 2025).

C=C(C)[C@@H]1CCC(C)=C[C@H]1c1c(O)cc(CCCCC)cc1O [CBD, cannabidiol]
aqueous solubility: < 0.01 mg/mL | estimated oil/water partition coefficient (Log P) (estimated): 6-7
